Test results: US5438052A, “Cephalosporin derivatives” (Hoffmann-La Roche Inc., priority 1991, dated 1995)
In brackets after ≈: the same amount, converted by molar mass. Read-outs that look alike come from different tables or passages of the source.

What was measured:
[1] = test system: Pseudomonas aeruginosa BA; experiment: Experimental systemic septicaemia in the mouse; format: in vivo; details: sc, 96 h
Method in brief: (§1)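 Albino mice (16-20 g) infected i.p. with overnight culture at about 5-100× the 48 h LD50; groups of 5. Compounds given s.c. in 2% Tween 80 at 1 and 3 h post-infection (P. aeruginosa also at 5 h). ED50 (mg/kg s.c.) by Probit from 4-day survival.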

[2] = test system: E. coli 25922; experiment: Experimental systemic septicaemia in the mouse; format: in vivo; details: 96 h
Method in brief: as §1

[3] = test system: S. aureus Schoch; experiment: Experimental systemic septicaemia in the mouse; format: in vivo; details: Staphylococcus aureus, sc, 96 h
Method in brief: as §1

[4] = test system: P. aeruginosa MK1184; experiment: Minimum inhibitory concentration in vitro, agar dilution method; format: cell-based; details: Pseudomonas aeruginosa
Text: (§2) 1. Minimum Inhibitory Concentration in vitro
(§3) The activities ascertained, minimum inhibitory concentration (MIC) in μg/ml, are compiled in Table 1 hereinafter: […]

[5] = test system: S. marcescens 69438; experiment: as above; format: cell-based; details: Serratia marcescens
Text: as §2, §3

[6] = test system: S. pyogenes 15; experiment: as above; format: cell-based; details: Streptococcus pyogenes
Text: as §2, §3

[7] = test system: P. aeruginosa 799/61; experiment: as above; format: cell-based; details: Pseudomonas aeruginosa
Text: as §2, §3

[8] = test system: P. mirabilis 2117; experiment: as above; format: cell-based; details: Proteus mirabilis
Text: as §2, §3

[9] = test system: E. cloacae P99; experiment: as above; format: cell-based; details: Enterobacter cloacae
Text: as §2, §3

[10] = test system: E. cloacae 908R; experiment: as above; format: cell-based; details: Enterobacter cloacae
Text: as §2, §3

[11] = test system: P. aeruginosa BA; experiment: as above; format: cell-based; details: Pseudomonas aeruginosa
Text: as §2, §3

[12] = test system: E. cloacae 908SSi; experiment: as above; format: cell-based; details: Enterobacter cloacae
Text: as §2, §3

[13] = test system: P. aeruginosa 799/WT; experiment: as above; format: cell-based; details: Pseudomonas aeruginosa
Text: as §2, §3

[14] = test system: K. oxytoca 1082; experiment: as above; format: cell-based; details: Klebsiella oxytoca
Text: as §2, §3

[15] = test system: E. coli 25922; experiment: as above; format: cell-based; details: Escherichia coli
Text: as §2, §3

[16] = test system: K. pneumoniae 418; experiment: as above; format: cell-based; details: Klebsiella pneumoniae
Text: as §2, §3

[17] = test system: P. vulgaris 1028; experiment: as above; format: cell-based; details: Proteus vulgaris
Text: as §2, §3

[18] = test system: C. freundii 902; experiment: as above; format: cell-based; details: Citrobacter freundii
Text: as §2, §3

[19] = test system: S. pneumoniae BA; experiment: as above; format: cell-based; details: Streptococcus pneumoniae
Text: as §2, §3

[20] = test system: P. aeruginosa 27853; experiment: as above; format: cell-based; details: Pseudomonas aeruginosa
Text: as §2, §3

[21] = test system: S. aureus 6538; experiment: as above; format: cell-based; details: Staphylococcus aureus
Text: as §2, §3

[22] = test system: E. aerogenes CF153; experiment: as above; format: cell-based; details: Klebsiella aerogenes, CF153
Text: as §2, §3

[23] = P. aeruginosa BA, albino mice, s.c. 1, 3 and 5 hours after infection, survival after 4 days, read-out: ED50
[24] = Escherichia coli, sc, E. coli 25922, albino mice, s.c. 1 and 3 hours after infection, survival after 4 days, read-out: ED50
[25] = S. aureus Schoch, albino mice, s.c. 1 and 3 hours after infection, survival after 4 days, read-out: ED50
[26] = P. aeruginosa MK1184, agar dilution, read-out: MIC
[27] = S. marcescens 69438, agar dilution, read-out: MIC
[28] = S. pyogenes 15, agar dilution, read-out: MIC
[29] = P. aeruginosa 799/61, agar dilution, read-out: MIC
[30] = P. mirabilis 2117, agar dilution, read-out: MIC
[31] = E. cloacae 908R, agar dilution, read-out: MIC
[32] = P. aeruginosa BA, agar dilution, read-out: MIC
[33] = E. cloacae 908SSi, agar dilution, read-out: MIC
[34] = P. aeruginosa 799/WT, agar dilution, read-out: MIC
[35] = K. oxytoca 1082, agar dilution, read-out: MIC
[36] = E. coli 25922, agar dilution, read-out: MIC
[37] = K. pneumoniae 418, agar dilution, read-out: MIC
[38] = P. vulgaris 1028, agar dilution, read-out: MIC
[39] = C. freundii 902, agar dilution, read-out: MIC
[40] = S. pneumoniae BA, agar dilution, read-out: MIC
[41] = P. aeruginosa 27853, agar dilution, read-out: MIC
[42] = S. aureus 6538, agar dilution, read-out: MIC

Row | SMILES | ED50 [1] | ED50 ([2]; Escherichia coli, 25922, sc) | ED50 [3] | MIC ([4]; MK1184) | MIC [5]; 69438 | MIC [6]; 15 | MIC ([7]; 799/61) | MIC [8]; 2117 | MIC [9] | MIC ([10]; 908R) | MIC [11] | MIC ([12]; 908SSI) | MIC ([13]; 799/WT) | MIC [14]; 1082 | MIC [15]; 25922 | MIC [16]; 418 | MIC [17]; 1028 | MIC [18]; 902 | MIC [20]; 27853 | MIC [21]; 6538 | further results
1 | Cc1cc(SCC2=C(C(=O)[O-])N3C(=O)[C@@H](NC(=O)/C(=N\OC(C)(C)C(=O)NNC(=O)c4ccc(O)c(O)c4)c4csc(N)n4)[C@H]3SC2)n2nc(CNC(=O)c3ccc(O)c(O)c3)nc2n1.[Na+] [Example 61, (6R,7R)-7-[(Z)-2-(2-amino-4-thiazolyl)-2-[[1-[3-(3,4-dihydroxybenzoyl)carbazoyl]-1-methylethoxy]imino]acetamido]-3-[[[2-[[(3,4-dihydroxybenzoyl)amino]methyl]-5-methyl-s-triazolo[1,5-a]pyrimidin-7-yl]thio]methyl]-8-oxo-5-thiaazabicyclo[4.2.0]oct-2-ene-2-carboxylic acid sodium salt (1:1)] | 0.06 mg/kg | < 0.1 mg/kg | 8.4 mg/kg | < 0.1 µg/mL | < 0.1 µg/mL | 1 µg/mL | < 0.1 µg/mL | < 0.1 µg/mL | 1 µg/mL | 0.5 µg/mL | < 0.1 µg/mL | 1 µg/mL | < 0.1 µg/mL | < 0.1 µg/mL | < 0.1 µg/mL | < 0.1 µg/mL | < 0.1 µg/mL | < 0.1 µg/mL | < 0.1 µg/mL | 16 µg/mL | MIC [19]: 4 µg/mL
2 | Nc1nc(/C(=N/OCc2cc(=O)c(O)co2)C(=O)N[C@@H]2C(=O)N3C(C(=O)O)=C(CSc4cc(-c5ccc(O)c(O)c5)nc5ccnn45)CS[C@H]23)cs1 [Example 14, (6R,7R)-7-[(Z)-2-(2-amino-4-thiazolyl)-2-[[(5-hydroxy-4-oxo-4H-pyran-2-yl)methoxy]imino]acetamido]-3-[[[5-(3,4-dihydroxyphenyl)pyrazolo[1,5-a]pyrimidin-7-yl]thio]methyl]-8-oxo-5-thia-1-azabicyclo[4.2.0]oct-2-ene-2-carboxylicacid] | – | – | – | – | – | – | – | – | 16 µg/mL (≈ 20.9 µM) | – | – | – | – | – | – | – | – | – | – | – | ED50 [1, 23]: 7.1 mg/kg; ED50 [2, 24]: 4.4 mg/kg; ED50 [3, 25]: > 12 mg/kg; MIC [4, 26]: 16 µg/mL (≈ 20.9 µM); MIC [5, 27]: 0.25 µg/mL (≈ 0.327 µM); MIC [6, 28]: 0.5 µg/mL (≈ 0.654 µM); MIC [7, 29]: 0.06 µg/mL (≈ 0.0785 µM); MIC [8, 30]: 0.5 µg/mL (≈ 0.654 µM); MIC [10, 31]: 2 µg/mL (≈ 2.62 µM); MIC [11, 32]: 4 µg/mL (≈ 5.23 µM); MIC [12, 33]: 1 µg/mL (≈ 1.31 µM); MIC [13, 34]: 1 µg/mL (≈ 1.31 µM); MIC [14, 35]: 0.12 µg/mL (≈ 0.157 µM); MIC [15, 36]: 0.12 µg/mL (≈ 0.157 µM); MIC [16, 37]: 0.06 µg/mL (≈ 0.0785 µM); MIC [17, 38]: 0.25 µg/mL (≈ 0.327 µM); MIC [18, 39]: 1 µg/mL (≈ 1.31 µM); MIC [19, 40]: 0.5 µg/mL (≈ 0.654 µM); MIC [20, 41]: 4 µg/mL (≈ 5.23 µM); MIC [21, 42]: 16 µg/mL (≈ 20.9 µM)
3 | Cc1cc(SCC2=C(C(=O)O)N3C(=O)[C@@H](NC(=O)/C(=N\OC(C)(C)C(=O)NNC(=O)c4ccc(O)c(O)c4)c4csc(N)n4)[C@H]3SC2)n2nc(COC(=O)c3ccc(O)c(O)c3)nc2n1 [Example 43] | – | – | – | – | – | – | – | – | 0.12 µg/mL (≈ 0.126 µM) | – | – | – | – | – | – | – | – | – | – | – | ED50 [1, 23]: 0.019 mg/kg; ED50 [2, 24]: 0.05 mg/kg; ED50 [3, 25]: 12 mg/kg; MIC [4, 26]: < 0.1 µg/mL; MIC [5, 27]: 0.12 µg/mL (≈ 0.126 µM); MIC [6, 28]: 8 µg/mL (≈ 8.42 µM); MIC [7, 29]: < 0.1 µg/mL; MIC [8, 30]: 0.12 µg/mL (≈ 0.126 µM); MIC [10, 31]: 0.12 µg/mL (≈ 0.126 µM); MIC [11, 32]: < 0.1 µg/mL; MIC [12, 33]: 2 µg/mL (≈ 2.11 µM); MIC [13, 34]: < 0.1 µg/mL; MIC [14, 35]: < 0.1 µg/mL; MIC [15, 36]: < 0.1 µg/mL; MIC [16, 37]: < 0.1 µg/mL; MIC [17, 38]: 0.12 µg/mL (≈ 0.126 µM); MIC [18, 39]: < 0.1 µg/mL; MIC [19, 40]: 4 µg/mL (≈ 4.21 µM); MIC [20, 41]: 0.25 µg/mL (≈ 0.263 µM); MIC [21, 42]: 16 µg/mL (≈ 16.8 µM)
4 | Cc1cc(SCC2=C(C(=O)[O-])N3C(=O)[C@@H](NC(=O)/C(=N\OCc4ccc(O)c(O)c4F)c4csc(N)n4)[C@H]3SC2)n2nc(CS(=O)(=O)c3ccc(O)c(O)c3)nc2n1.[Na+] [Example 12, (6R,7R)-7-[(Z)-2-(2-amino-4-thiazolyl)-2-[[(2-fluoro-3,4-dihydroxybenzyl)oxy]imino]acetamido]-3-[[[2-[[(3,4-dihydroxyphenyl)sulphonyl]methyl]-5-methyl-s-triazolo[1,5-a]pyrimidin-7-yl]thio]methyl]-8-oxo-5-thia-1-azabicyclo[4.2.0]oct-2-ene-2-carboxylic acid sodium salt (1:1)] | 0.028 mg/kg | < 0.05 mg/kg | 6.2 mg/kg | < 0.1 µg/mL | < 0.1 µg/mL | 2 µg/mL | < 0.1 µg/mL | 0.12 µg/mL | 8 µg/mL | 2 µg/mL | < 0.1 µg/mL | 4 µg/mL | < 0.1 µg/mL | 0.5 µg/mL | < 0.1 µg/mL | < 0.1 µg/mL | 0.25 µg/mL | < 0.1 µg/mL | < 0.1 µg/mL | 16 µg/mL | MIC [22]: 4 µg/mL
5 | Cc1cc(SCC2=C(C(=O)[O-])N3C(=O)[C@@H](NC(=O)/C(=N\OC(C)(C)C(=O)NNC(=O)c4ccc(O)c(O)c4)c4csc(N)n4)[C@H]3SC2)n2nc(CNS(=O)(=O)c3ccc(O)c(O)c3)nc2n1.[Na+] [Example 42, (6R,7R)-7-[(Z)-2-(2-amino-4-thiazolyl)-2-[[1-[3-(3,4-dihydroxybenzoyl)carbazoyl]-1-methylethoxy]imino]acetamido]-3-[[[2-[(3,4-dihydroxybenzenesulphonamido)methyl]-5-methyl-s-triazolo[1,5-a]pyrimidin-7-yl]thio]methyl]-8-oxo-5-thia-1-azabicyclo[4.2.0]oct-2-ene-2-carboxylic acid sodium salt (1:1)] | 0.017 mg/kg | 0.005 mg/kg | 10 mg/kg | < 0.1 µg/mL | 0.12 µg/mL | 8 µg/mL | < 0.1 µg/mL | 0.12 µg/mL | – | 0.5 µg/mL | < 0.1 µg/mL | 4 µg/mL | < 0.1 µg/mL | < 0.1 µg/mL | < 0.1 µg/mL | < 0.1 µg/mL | 0.25 µg/mL | < 0.1 µg/mL | 0.25 µg/mL | 32 µg/mL | MIC [19]: 4 µg/mL
